Experiment [1] relates to HL-60. The experiment in a line: Induction of apoptosis in human HL60 cells assessed as fractions of fragmented DNA at 0.5 uM after 24 hrs using propidium iodide staining by flow cytometry (reference value: 0.53%). The experiment is classed as functional. Background: In flow cytometry, cells or beads pass a laser one at a time.
Experiment [2] deals with HL-60. The experiment in a line: Induction of apoptosis in human HL60 cells assessed as fractions of fragmented DNA at 0.5 uM after 48 hrs using propidium iodide staining by flow cytometry (reference value: 1.66%). It counts as functional.
Experiment [3] relates to HL-60. The experiment is described as follows: Cell cycle arrest in human HL60 cells assessed as accumulation at G0/G1 phase at 0.5 uM after 24 hrs using propidium iodide staining by flow cytometry (reference value: 55.47%). It counts as functional.
Experiment [4] relates to HL-60. The experiment is described as follows: Cell cycle arrest in human HL60 cells assessed as accumulation at S phase at 0.5 uM after 24 hrs using propidium iodide staining by flow cytometry (reference value: 17.62%). The experiment is classed as functional.
Experiment [5] deals with HL-60. The experiment in a line: Induction of apoptosis in human HL60 cells assessed as fractions of fragmented DNA at 1 uM after 48 hrs using propidium iodide staining by flow cytometry (reference value: 1.66%). The experiment is classed as functional.
The subject of experiment [6] is HL-60. The experiment is described as follows: Induction of apoptosis in human HL60 cells assessed as fractions of fragmented DNA at 0.05 uM after 48 hrs using propidium iodide staining by flow cytometry (reference value: 1.66%). The experiment is classed as functional.
Experiment [7] has as its system HL-60. The experiment is described as follows: Induction of apoptosis in human HL60 cells after 48 hrs using propidium iodide by flow cytometry. The experiment is classed as functional, cell-based. The note with it: for EC50: HL-60, 48 h.
The nature of experiment [8]: Inhibition of polymerization of tubulin by turbidimetry.
The subject of experiment [9] is HL-60. The experiment in a line: Antiproliferative activity against human HL60 cells after 48 hrs by MTT assay. The note with it: HL-60, 48 h. The experiment is classed as functional, cell-based. A general note: Tetrazolium dyes change colour on reduction, which living cells bring about.
The test system of experiment [10] is HL-60. The experiment in a line: Cell cycle arrest in human HL60 cells assessed as accumulation at G2/M phase at 0.5 uM after 24 hrs using propidium iodide staining by flow cytometry (reference value: 22.26%). The experiment is classed as functional.
Experiment [11] relates to HL-60. The experiment in a line: Induction of apoptosis in human HL60 cells assessed as fractions of fragmented DNA at 0.1 uM after 24 hrs using propidium iodide staining by flow cytometry (reference value: 0.53%). The experiment is classed as functional.
Experiment [12] concerns HL-60. The experiment is described as follows: Cell cycle arrest in human HL60 cells assessed as accumulation at G0/G1 phase at 0.1 uM after 24 hrs using propidium iodide staining by flow cytometry (reference value: 55.47%). The experiment is classed as functional.
Experiment [13] concerns HL-60. The experiment in a line: Induction of apoptosis in human HL60 cells assessed as fractions of fragmented DNA at 0.25 uM after 48 hrs using propidium iodide staining by flow cytometry (reference value: 1.66%). The experiment is classed as functional.
Experiment [14] relates to HL-60. The experiment is described as follows: Cell cycle arrest in human HL60 cells assessed as accumulation at G2/M phase at 0.1 uM after 24 hrs using propidium iodide staining by flow cytometry (reference value: 22.26%). It counts as functional.
Experiment [15] deals with HL-60. The experiment is described as follows: Ratio of compound EC50 to E7010 EC50 for human HL60 cells. It counts as functional.
The test system of experiment [16] is HL-60. The experiment is described as follows: Cell cycle arrest in human HL60 cells assessed as accumulation at S phase at 0.1 uM after 24 hrs using propidium iodide staining by flow cytometry (reference value: 17.62%). The experiment is classed as functional.
The test system of experiment [17] is HL-60. The experiment in a line: Induction of apoptosis in human HL60 cells assessed as fractions of fragmented DNA at 0.1 uM after 48 hrs using propidium iodide staining by flow cytometry (reference value: 1.66%). It counts as functional.

Molecules are shown by their SMILES.

For `COc1cc(C2C=C(c3cccs3)Nc3ncnn32)cc(OC)c1OC` (configuration not stated), the Activity in the experiment on HL-60 [1] was found to be 0.48%; with HL-60 [2], 10.35%; in the experiment with HL-60 [3], 53.87%; with HL-60 [4], 15.16%; in the experiment on HL-60 [5] it was 85.69%; in the experiment on HL-60 [6] it was 6.03%. Besides, the Activity result with HL-60 [7] was “Dose-dependent effect”; in the experiment with HL-60 [10] it was 25.93%. It took 0.78 µM to reach a half-maximal effect in the experiment with HL-60 [7] (EC50). Besides, the figures for the IC50 (in experiment [8]; in the experiment with HL-60 [9]) were 12.8 µM and 0.1 µM, respectively.
Take `COc1cc(C2C=C(c3ccc(Cl)cc3)Nc3ncnn32)cc(OC)c1OC` (configuration not stated): the IC50 (usually the concentration needed to halve the response being measured) is greater than 25 µM in experiment [8] and 0.39 µM in the experiment on HL-60 [9].
In the same order, the values of `COc1ccc(C2=CC(c3cc(OC)c(OC)c(OC)c3)n3ncnc3N2)cc1OC` (configuration not stated) are greater than 24 µM and 0.34 µM.
For the molecule `COc1ccc(C2=CC(c3cc(OC)c(OC)c(OC)c3)n3ncnc3N2)cc1` (configuration not stated), the Activity in the experiment on HL-60 [11] was determined as 0.93%; in the experiment with HL-60 [12], 51.67%; in the experiment with HL-60 [13], 92.36%; in the experiment with HL-60 [14], 24.39%; in the experiment with HL-60 [16] it was 18.82%; in the experiment with HL-60 [6], 4.94%. Further, the Activity result with HL-60 [7] was “Dose-dependent effect”; in the experiment on HL-60 [17], 77.49%. For the same molecule, the “Ratio EC50” value in the experiment on HL-60 [15] amounted to 2. Also, in the experiment with HL-60 [7], a half-maximal response (EC50) required 0.08 µM. The results for the IC50 (in experiment [8]; in the experiment with HL-60 [9]) were 10.4 µM and 0.19 µM, respectively.
For `COc1cc(/C=C(/C(=O)O)c2ccc(-c3ccccc3)cc2)cc(OC)c1OC`, in the experiment with HL-60 [9], 2.4 µM corresponded to half-maximal inhibition (IC50).
In the case of `COc1cc(C(=O)N2c3ccccc3CC2C)cc(OC)c1OC` (configuration not stated), the IC50 with HL-60 [9] came out at 3.2 µM.
Still for that read-out and setting: the same measure for `COc1ccc(/C=C(/C(=O)c2cc(OC)c(OC)c(OC)c2)c2nc3ccccc3o2)cc1`: 2.4 µM; for `COc1cc(C(=O)/C(=C/c2cccnc2)c2nc3ccccc3o2)cc(OC)c1OC`: 1.7 µM.
For the molecule `COc1cc(C(=O)c2c(-c3ccccc3)cc3ccccn23)cc(OC)c1OC`, the IC50 in experiment [8] was 20 µM; in the experiment with HL-60 [9], 0.6 µM.
Molecule `COc1cc(C(=O)N2CCCc3ccccc32)cc(OC)c1OC` displayed an IC50 with HL-60 [9] of 2 µM.
As to `COc1cc(C2C=C(c3ccccc3)Nc3ncnn32)cc(OC)c1OC` (configuration not stated), the Activity in the experiment with HL-60 [11] is recorded as 0.81%; with HL-60 [12], 53.51%; in the experiment with HL-60 [13], 60.88%; in the experiment on HL-60 [14], 25.82%; with HL-60 [16], 15.92%; in the experiment with HL-60 [6], 4.32%. The Activity entry was “Dose-dependent effect” in the experiment with HL-60 [7] and 4.06% in the experiment with HL-60 [17]. Further, the “Ratio EC50” value with HL-60 [15] worked out at 2. A half-maximal response in the experiment with HL-60 [7] (EC50) required 0.22 µM. Besides, the half-maximal inhibitory concentration (IC50) in experiment [8] worked out at 13.7 µM; with HL-60 [9] it was 0.17 µM.
Turning to `CCc1ccc(C2=CC(c3cc(OC)c(OC)c(OC)c3)n3ncnc3N2)cc1` (configuration not stated), the IC50 in experiment [8] is greater than 25 µM; in the experiment on HL-60 [9], 0.37 µM.
In the experiment with HL-60 [9], `COc1ccccc1NC(=O)CSc1nnc(-c2cc(OC)c(OC)c(OC)c2)n1-c1ccc(C)cc1` gave an IC50 of 2.4 µM.
On to `COc1cc(C2C=C(c3cccc(NC(C)=O)c3)Nc3ncnn32)cc(OC)c1OC` (configuration not stated), for which the IC50 was greater than 25 µM in [8] and 0.33 µM in the experiment with HL-60 [9].
Regarding `COc1cc(C(=O)c2c(C)cn3c(CCC#N)cccc23)cc(OC)c1OC`, the concentration for half-maximal inhibition (IC50) is 5 µM in [8] and 1.4 µM in the experiment with HL-60 [9].
Molecule `COc1cc(/C=C(/C(=O)c2cc(OC)c(OC)c(OC)c2)c2nc3ccccc3o2)cc(OC)c1OC` yielded an IC50 in the experiment with HL-60 [9] of 1.7 µM.
Regarding `COc1cc(C2C=C(c3ccc(C)cc3)Nc3ncnn32)cc(OC)c1OC` (configuration not stated), the Activity with HL-60 [11] is reported as 22.94%; in the experiment with HL-60 [12], 9.7%; in the experiment with HL-60 [13] it was 90.56%; with HL-60 [14], 48.64%; in the experiment on HL-60 [16], 16.5%; in the experiment on HL-60 [6], 4.61%. Also, the Activity result in the experiment with HL-60 [7] was “Dose-dependent effect”; with HL-60 [17] it was 89.85%. Also, the “Ratio EC50” value with HL-60 [15] is recorded as 2. Besides, the EC50 (as a rule, the midpoint of the concentration-response curve) in the experiment with HL-60 [7] came out at 0.07 µM. In addition, the IC50 in [8] was found to be 12.8 µM; in the experiment with HL-60 [9] it was 0.13 µM.
Molecule `COc1cc(C(=O)N2CCc3ccccc32)cc(OC)c1OC` returned an IC50 with HL-60 [9] of 2 µM.

(Values after ChEMBL document CHEMBL1250532, “Structure-based virtual screening of novel tubulin inhibitors and their characterization as anti-mitotic agents” (Bioorg Med Chem, 2010).)
